Measurements published in US20230147129A1, “COMPOUNDS FOR USE IN THE TREATMENT OF SYNUCLEINOPATHIES” (SOM INNOVATION BIOTECH, S.A., priority 2020, published 2023).

Tests used:
α-synuclein [1] = biological target: T1, α-synuclein (Homo sapiens, UniProt P37840); assay: Thioflavin-T assay of α-synuclein aggregation kinetics; format: biochemical; settings: 100 μM compound, FIG. 1A and 1B
Method: Lyophilized α-synuclein was dissolved in PBS (phosphate buffer solution) to a final solution of 210 μM and filtered through a Millipore 0.22 μm filter. α-synuclein aggregation was performed in a 96-well plate (non-treated, black plastic), each well containing a Teflon® polyball ⅛″ diameter (Polysciences Europe GmbH, Eppelheim, Germany), 40 μM Thioflavin-T (Th-T), 70 μM α-synuclein, 100 μM of the compounds to be tested and PBS up to a final volume of 150 μL. The plates were fixed into an orbital culture shaker Max-Q 4000 (Thermo Scientific, Waltham, Mass., USA) to keep the incubation at 37° C., 100 rpm. Every, 2 h, the fluorescence intensity was measured using a Victor 3.0 Multilabel Reader (PerkinElmer, Waltham, Mass., USA), by exciting the mixtures with 430-450 nm filter and collecting the emission intensity with 480-510 nm filter. Each measurement was performed in triplicates.
Each plate contained three (3) α-synuclein controls in the absence of any of the tested compounds. The averaged Th-T fluorescence obtained for these wells at the end of the experience was normalized to 1, and the kinetic curves in the different wells re-scaled accordingly. After compiling the fluorescence signals, means and standard error of mean (SEM) were used to fit the aggregation kinetic with equation (1),
wherein k^b and k^a indicate the homogeneous nucleation rate constant and the secondary rate constant, accounting for fibril elongation and secondary nucleation, respectively.
Re-scaled curves were used to compare the controls with the effect of the compounds and to ensure that the controls were reproducible between different experiments.

α-synuclein [2] = biological target: T1, α-synuclein; assay: Light scattering of α-synuclein aggregates at end-point (48 h); format: biochemical; settings: 48 h end-point; for Effect on aggregation measured by light scattering at 300 and 340 nm (in words): FIG. 2A and 2B; for Normalized light scattering value at 300 nm: normalised to control = 1, excitation 300 nm; for Normalized light scattering value at 340 nm: normalised to control = 1, excitation 340 nm
Method: Total aggregate formation at 48 h was measured by light scattering adding 80 μL of pre-aggregated α-synuclein into a quartz cuvette. Samples were previously re-suspended by carefully vortexing and pipetting, and then excited at 300 and 340 nm and 90° scattering collected between 280 to 360 nm. These measurements were performed in a Cary Eclipse Fluorescence Spectrophotometer (Agilent, Santa Clara, Calif., USA).

[3] = system: primary culture of dopaminergic neurons injured with a mitochondrial toxin (MPP+); assay: Neuroprotection in primary culture of dopaminergic neurons injured with MPP+; format: cell-based, rat; settings: compounds 10 nM to 10 μM, pre-incubated 1 or 4 hours, MPP+ 4 μM for 48 hours, FIG. 16-20
Method: The efficacy of 5 compounds was assessed in a primary culture of dopaminergic neurons injured with a mitochondrial toxin (MPP+), which is often used to experimentally mimic the pathology of Parkinson disease (FIG. 16 to 20).
To obtain rat dopaminergic neurons, pregnant female rats (Wistar, Janvier Labs, France) of 15 days of gestation were killed using a deep anesthesia in a CO2 chamber followed by a cervical dislocation. Midbrains obtained from 15-day-old rat embryos were dissected under microscope and placed in ice-cold medium of Leibovitz (L15) containing 2% of Penicillin-Streptomycin (PS) and 1% of bovine serum albumin (BSA). The ventral portion of the mesencephalic flexure, a region of the developing brain rich in dopaminergic neurons, was used for the cell preparations.
The midbrains were dissociated by trypsinization for 20 min at 37° C. (solution at a final concentration of 0.05% trypsin and 0.02% EDTA). The reaction was stopped by adding Dulbecco's modified Eagle's medium (DMEM) containing DNAase I grade II (0.5 mg/mL) and 10% of fetal calf serum (FCS). Cells were then mechanically dissociated by 3 passages through a 10 ml pipette. […] The supernatant was discarded and the cell pellet was re-suspended in a defined culture serum-free medium consisting of Neurobasal (Invitrogen) supplemented with B27 (2%), L-glutamine (2 mM) and 2% of PS solution and 10 ng/ml of Brain-derived neurotrophic factor (BDNF) and 1 ng/mL of Glial-Derived Neurotrophic Factor (GDNF). Viable cells were counted in a Neubauer cytometer using the trypan blue exclusion test.
Half of the medium was changed every 2 days with fresh medium. On 96-wells plates, only 60 wells were used, the first columns and first lines were not used to avoid any edge effect, the empty wells were filled with sterile water.
Test compounds were tested on culture in 96-well plates (n=6 culture wells per condition).
Vehicle: Culture medium (0.1% DMSO).
Pre-incubation: On day 6 of culture, the compounds (from 10 nM to 10 μM) were dissolved in DMSO and then in culture medium, and were pre-incubated with primary dopaminergic neurons for 1 hour or 4 hours before the application of MPP+.
Injury: One or four hours after the application of the test compounds, MPP+ was added to a final concentration of 4 μM, diluted in control medium still in presence of compounds for 48 hours.
48 hours after the intoxication, the cell culture supernatant was removed, and the cells were fixed by a solution of 4% paraformaldehyde in PBS, pH=7.3 for 20 min at room temperature. The cells were washed twice in PBS, and then permeabilized. Non-specific sites were blocked with a solution of PBS containing 0.1% saponin and 1% FCS for 15 min at room temperature.
Immunostaining: TH and α-syn
The cultures were incubated with: • A monoclonal anti-Tyrosine Hydroxylase (TH) antibody produced in mouse at dilution of 1/10000 in PBS containing 1% FCS, 0.1% saponin, for 2 hours at room temperature. • a polyclonal anti-alpha synuclein (α-syn) antibody produced in rabbit at dilution of 1/200 in PBS containing 1% FCS, 0.1% saponin, for 2 hours at room temperature.
For each condition, 20 (for the TH survival and α-syn readouts) pictures representing the whole well area, were automatically taken using ImageXpress® (Molecular Devices) at 10× magnification (20 pictures, for TH and α-syn into TH neurons) using the same acquisition parameters. From images, analyses were directly and automatically performed by Custom Module Editor® (Molecular Devices). The following read-outs were measured: • Analysis of total number of THneurons (TH positive neurons), • total length of neurite network of TH positive neurons (in μm), • α-syn aggregation (overlapping between TH and α-syn staining),
Results are expressed in percentage of control. All values show the mean+/−SEM (standard error of the mean) from 4-6 wells per condition.

Row | SMILES | Inhibition of Th-T fluorescence / fibril formation (in words) (α-synuclein [1]) | Effect on aggregation measured by light scattering at 300 and 340 nm (in words) (α-synuclein [2]) | Normalized light scattering value at 300 nm (α-synuclein [2]) | Normalized light scattering value at 340 nm (α-synuclein [2]) | Loss of dopaminergic neurons (TH number) after MPP+ (in words) [3] | α-syn aggregation (ratio a-syn area/TH number) triggered by MPP+ (in words) [3]
1 | Nc1nc(=O)c2ncn([C@H]3C=C[C@@H](CO)C3)c2[nH]1 [(−)-Carbovir, 2-amino-9-[(1R,4S)-4-(hydroxymethyl)cyclopent-2-en-1-yl]-1H-purin-6-one] | more modest inhibition of fibril formation | reduced absorbance at both length waves | 0.72 ± 0.08 | 0.77 ± 0.09 |  | 
2 | Cn1ncc(Cl)c1-c1cc(C(=O)N[C@H](CN)Cc2cccc(F)c2)sc1Cl [Afuresertib, N-[(2S)-1-amino-3-(3-fluorophenyl)propan-2-yl]-5-chloro-4-(4-chloro-1-methyl-1H-pyrazol-5-yl)thiophene-2-carboxamide] | potent inhibitors | reduced absorbance at both length waves | 0.44 ± 0.08 | 0.62 ± 0.09 | partially prevented the loss of dopaminergic neurons | decreased α-syn aggregation
3 | O=C(c1ccccc1)N1CCN=C1Nc1c(Cl)cccc1Cl [Benclonidine, [2-(2,6-dichloroanilino)-4,5-dihydroimidazol-1-yl]-phenylmethanone] | potent inhibitors |  | 0.95 ± 0.07 | 0.98 ± 0.07 | partially prevented the loss of dopaminergic neurons | decreased α-syn aggregation
4 | C[C@@H](NCCCc1cccc(C(F)(F)F)c1)c1cccc2ccccc12 [Cinacalcet, N-[(1R)-1-(1-naphthyl)ethyl]-3-[3-(trifluoromethyl)phenyl]propan-1-amine] |  | significant reduction of the absorbance | 0.44 ± 0.17 | 0.48 ± 0.18 |  | 
5 | N=C(N)NCC1COC2(CCCCC2)O1 (centres unmarked) [Guanadrel, 2-(1,4-dioxaspiro[4.5]decan-2-ylmethyl)guanidine] | more modest inhibition of fibril formation | reduced absorbance at both length waves | 0.68 ± 0.06 | 0.68 ± 0.06 | partially prevented the loss of dopaminergic neurons | decreased α-syn aggregation
6 | N=C(N)NC(=O)Cc1c(Cl)cccc1Cl [Guanfacine, N-(diaminomethylidene)-2-(2,6-dichlorophenyl)acetamide] | more modest inhibition | significant reduction of the absorbance | 0.65 ± 0.10 | 0.68 ± 0.10 | partially prevented the loss of dopaminergic neurons | decreased α-syn aggregation
7 | CC(CCc1ccc2c(c1)OCO2)NCC(O)c1ccc(O)c(C(N)=O)c1 (centres unmarked) [Medroxalol, 5-[2-[[3-(1,3-Benzodioxol-5-yl)-1-methylpropyl]amino]-1-hydroxyethyl]-2-hydroxybenzamide] | more modest inhibition of fibril formation | reduced absorbance at both length waves | 0.72 ± 0.03 | 0.75 ± 0.04 |  | 
8 | CCCOc1ccc2[nH]c(NC(=O)OC)nc2c1 [Oxibendazole, Methyl N-(6-propoxy-1H-benzimidazol-2-yl) carbamate] |  | significant reduction of the absorbance | 0.13 ± 0.02 | 0.51 ± 0.10 |  | 
9 | N=C(NN=Cc1ccc(Cl)cc1)NN=Cc1ccc(Cl)cc1 [Robenidine, 1,2-bis[(4-chlorophenyl)methylideneamino]guanidine] |  | significant reduction of the absorbance | 0.31 ± 0.03 | 0.31 ± 0.02 |  | 
10 | Cc1ccnc(NS(=O)(=O)c2ccc(N)cc2)n1 [Sulfamerazine, 4-amino-N-(4-methylpyrimidin-2-yl)benzenesulfonamide] | potent inhibitors | reduced absorbance at both length waves | 0.55 ± 0.10 | 0.78 ± 0.14 |  | 
